Test results: PMC12116762, “Topobexin targets the Topoisomerase II ATPase domain for beta isoform-selective inhibition and anthracycline cardioprotection” (Nature Communications, 2025)
Several values for one entry are separate records, joined by “and”; a condition that tells them apart may be missing. Equal values may be shown once. Read-outs that look alike come from different tables or passages of the source.

Tests used:
recombinant human TOP2B = biological target: T1, recombinant human TOP2B (Homo sapiens, UniProt Q02880); test: In vitro ATPase activity of TOP2B (coupled assay); assay type: biochemical; conditions: for SRbeta (SRTOP2B), TOP2 ATPase activity: TOP2A IC50 divided by TOP2B IC50; for IC50: n=3
T1 construct: Using recombinant full-length human TOP2A and TOP2B enzymes; YFP (N, cleaved yes); made in house; host or cells: HEK293F
T1 sequence (Q02880 1-1621 isoform Q02880-2): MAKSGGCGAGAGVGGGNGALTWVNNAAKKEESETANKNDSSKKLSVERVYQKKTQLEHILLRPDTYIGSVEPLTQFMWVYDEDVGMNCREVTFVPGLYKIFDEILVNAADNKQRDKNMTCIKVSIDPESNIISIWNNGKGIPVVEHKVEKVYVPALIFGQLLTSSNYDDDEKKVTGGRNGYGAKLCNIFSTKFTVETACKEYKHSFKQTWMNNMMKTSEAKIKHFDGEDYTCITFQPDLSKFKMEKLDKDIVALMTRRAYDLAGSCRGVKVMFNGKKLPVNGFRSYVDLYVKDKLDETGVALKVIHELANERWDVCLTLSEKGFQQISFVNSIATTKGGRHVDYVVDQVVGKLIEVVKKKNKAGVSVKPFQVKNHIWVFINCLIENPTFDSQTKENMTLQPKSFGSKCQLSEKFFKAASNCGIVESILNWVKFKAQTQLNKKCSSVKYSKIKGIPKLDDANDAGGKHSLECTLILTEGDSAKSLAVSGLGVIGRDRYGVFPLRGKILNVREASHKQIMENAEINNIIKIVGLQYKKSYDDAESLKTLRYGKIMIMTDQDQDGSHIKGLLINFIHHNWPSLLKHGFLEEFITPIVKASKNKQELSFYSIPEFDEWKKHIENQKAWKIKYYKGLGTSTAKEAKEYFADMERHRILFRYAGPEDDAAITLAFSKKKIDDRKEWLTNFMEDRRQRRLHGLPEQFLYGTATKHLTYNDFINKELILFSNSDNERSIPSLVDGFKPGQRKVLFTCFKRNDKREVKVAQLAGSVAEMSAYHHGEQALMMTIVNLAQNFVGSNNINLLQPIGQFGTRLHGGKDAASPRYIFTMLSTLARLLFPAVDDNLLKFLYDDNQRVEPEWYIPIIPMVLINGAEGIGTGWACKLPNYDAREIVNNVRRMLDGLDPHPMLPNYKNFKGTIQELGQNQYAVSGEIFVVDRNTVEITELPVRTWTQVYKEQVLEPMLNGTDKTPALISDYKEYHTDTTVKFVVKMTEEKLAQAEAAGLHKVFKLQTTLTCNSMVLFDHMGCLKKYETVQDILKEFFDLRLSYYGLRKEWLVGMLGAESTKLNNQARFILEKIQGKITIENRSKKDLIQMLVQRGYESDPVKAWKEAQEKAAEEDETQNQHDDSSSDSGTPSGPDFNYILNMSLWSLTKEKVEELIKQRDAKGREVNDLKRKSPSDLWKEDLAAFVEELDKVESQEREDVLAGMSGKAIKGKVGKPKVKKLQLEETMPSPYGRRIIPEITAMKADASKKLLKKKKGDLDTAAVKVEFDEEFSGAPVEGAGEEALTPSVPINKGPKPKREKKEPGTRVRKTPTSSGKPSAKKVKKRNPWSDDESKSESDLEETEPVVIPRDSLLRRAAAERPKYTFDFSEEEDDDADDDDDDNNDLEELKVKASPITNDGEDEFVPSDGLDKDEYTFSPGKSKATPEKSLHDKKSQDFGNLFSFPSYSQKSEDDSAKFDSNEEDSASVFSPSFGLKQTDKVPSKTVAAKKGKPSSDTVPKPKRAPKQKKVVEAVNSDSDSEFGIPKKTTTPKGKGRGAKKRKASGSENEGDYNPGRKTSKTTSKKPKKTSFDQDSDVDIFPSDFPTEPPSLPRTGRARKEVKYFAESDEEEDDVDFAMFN
Method: Topoisomerase proteins were diluted to 500 nM in storage buffer containing 20 mM HEPES pH 7.5, 500 mM NaCl, 0.5 mM TCEP, 25% glycerol, and 0.2 mg/mL BSA prior to use. A coupled assay was used to measure TOP2-catalyzed ATP hydrolysis in vitro[37] in Costar 96-well plates (Corning Incorporated). […] Reaction plates were pre-warmed to 30 °C for 5 min and ATP was added last to initiate the reaction. The reaction plate was placed in a CLARIOstarPlus plate reader (BMG Labtech) to measure NADH fluorescence at 30 °C every 30 s over 120 cycles using a 340-60 excitation filter and a 480-100 emission filter. Background fluorescence signals calculated from wells containing no ATP were subtracted from each measurement. The slope of NADH fluorescence decay in each well was calculated using the MARS software (BMG Labtech) and reaction wells that lacked topoisomerase inhibitor to account for photobleaching of NADH fluorescence served as background subtraction. Each presented data point was obtained from distinct sample. Values were normalized to untreated controls and plotted as a function of inhibitor concentration to determine IC50 values using Prism 9 (GraphPad).

[1] = system: neonatal rat ventricular cardiomyocytes (NVCM); test: Inherent toxicity (LDH release) in NVCM; assay type: cell-based; design: key to LDH release (inherent toxicity), mean of independent replicates: % of total LDH activity; conditions: for LTC = lowest toxic concentration / LDH release (inherent toxicity), mean of independent replicates: NVCM; for LTC = lowest toxic concentration: compound alone, n=4
Outline: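 Primary neonatal Wistar rat cardiomyocytes in serum- and pyruvate-free DMEM/F12 were pretreated with compound 3 h, then co-incubated 3 h with DAU (1.2 µM), or without DAU for inherent toxicity, then given a 48 h drug-free follow-up. Medium LDH activity (NAD+ reduction at 340 nm) expressed as % of total LDH.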

[2] = 0.03125 μM, independent replicates, read-out: Normalized % TOP2B activity, ATPase
[3] = 0.0625 μM, independent replicates, read-out: Normalized % TOP2B activity, ATPase
[4] = 0.125 μM, independent replicates, read-out: Normalized % TOP2B activity, ATPase
[5] = 0.25 μM, independent replicates, read-out: Normalized % TOP2B activity, ATPase
[6] = 0.5 μM, independent replicates, read-out: Normalized % TOP2B activity, ATPase
[7] = 1 μM, independent replicates, read-out: Normalized % TOP2B activity, ATPase
[8] = 2 μM, independent replicates, read-out: Normalized % TOP2B activity, ATPase
[9] = 4 μM, independent replicates, read-out: Normalized % TOP2B activity, ATPase
[10] = 8 μM, independent replicates, read-out: Normalized % TOP2B activity, ATPase
[11] = compound alone 0.01 µM, Suppl.Fig.4
[12] = compound alone 0.1 µM, Suppl.Fig.4
[13] = compound alone 1 µM, Suppl.Fig.4
[14] = compound alone 10 µM, Suppl.Fig.4

| SMILES | remaining activity at 0.03125 µM (recombinant human TOP2B; [2]) [%] | remaining activity at 0.0625 µM (recombinant human TOP2B; [3]) [%] | remaining activity at 0.125 µM (recombinant human TOP2B; [4]) [%] | remaining activity at 0.25 µM (recombinant human TOP2B; [5]) [%] | remaining activity at 0.5 µM (recombinant human TOP2B; [6]) [%] | remaining activity at 1 µM (recombinant human TOP2B; [7]) [%] | remaining activity at 2 µM (recombinant human TOP2B; [8]) [%] | remaining activity at 4 µM (recombinant human TOP2B; [9]) [%] | remaining activity at 8 µM (recombinant human TOP2B; [10]) [%] | SRbeta (SRTOP2B), TOP2 ATPase activity (recombinant human TOP2B) | IC50 (recombinant human TOP2B) | LTC = lowest toxic concentration [1] [µM] | LDH release (inherent toxicity), mean of independent replicates [1, 11] | LDH release (inherent toxicity), mean of independent replicates [1, 12] | LDH release (inherent toxicity), mean of independent replicates [1, 13] | LDH release (inherent toxicity), mean of independent replicates [1, 14] | other results |
| --- | --- | --- | --- | --- | --- | --- | --- | --- | --- | --- | --- | --- | --- | --- | --- | --- | --- |
| CCCc1cc(=O)oc2c(C(=O)N3CCCc4ccccc43)c(OCCO)ccc12 [5c] | 99.9 | 98.5 | 96.8 | 89.9 | 77 | 61.7 | 39.1 | 16.4 | 6.04 | 3.8 | 400 nM and 410 nM | 100 | 14.5952 | 14.7832 | 14.0641 | 18.571 | LDH release (inherent toxicity), mean of independent replicates ([1]; compound alone 30 µM, Suppl.Fig.4): 18.0914; LDH release (inherent toxicity), mean of independent replicates ([1]; compound alone 100 µM, Suppl.Fig.4): 21.5856 |
| CCCc1cc(=O)oc2c(C(=O)N3CCCc4ccccc43)c(OC)cc(OC)c12 [BNS-22] |  |  |  |  |  |  |  |  |  | 1.5 | 870 nM | > 10 | 12.6739 | 12.9938 | 12.9269 | 16.9772 | Normalized % TOP2B activity, ATPase (recombinant human TOP2B; 0.03125 μM, independent replicates): 92.74% and 92.18% and 98.3%; Normalized % TOP2B activity, ATPase (recombinant human TOP2B; 0.0625 μM, independent replicates): 92.24% and 94.66% and 102.1588%; Normalized % TOP2B activity, ATPase (recombinant human TOP2B; 0.125 μM, independent replicates): 100.3668% and 84.21% and 108.4459%; Normalized % TOP2B activity, ATPase (recombinant human TOP2B; 0.25 μM, independent replicates): 91.2179% and 87.24% and 97.62%; Normalized % TOP2B activity, ATPase (recombinant human TOP2B; 0.5 μM, independent replicates): 80.5% and 76.19% and 88.45%; Normalized % TOP2B activity, ATPase (recombinant human TOP2B; 1 μM, independent replicates): 58.26% and 48.84% and 67.64%; Normalized % TOP2B activity, ATPase (recombinant human TOP2B; 2 μM, independent replicates): 31.308% and 30.02% and 38.85%; Normalized % TOP2B activity, ATPase (recombinant human TOP2B; 4 μM, independent replicates): 10.88% and 8.636% and 13.51%; Normalized % TOP2B activity, ATPase (recombinant human TOP2B; 8 μM, independent replicates): 2.82% and 1.793% and 10.43%; Normalized % TOP2B activity, ATPase (recombinant human TOP2B; 16 μM, independent replicates): 1.695% and 1.187% and 0.8652%; Normalized % TOP2B activity, ATPase (recombinant human TOP2B; 32 μM, independent replicates): 0.8806% and 0.9028% and 0.7954%; selectivity ratio in favour of TOP2B (SRTOP2B) (recombinant human TOP2B; ATP hydrolysis and DNA decatenation): 1.5–1.6; LDH release (inherent toxicity), mean of independent replicates ([1]; compound alone 3 µM, Suppl.Fig.4): 14.5033 |
| C[C@@H](CN1CC(=O)NC(=O)C1)N1CC(=O)NC(=O)C1 [dexrazoxane] | 97.9 | 99.9 | 96.3 | 88.7 | 80.9 | 74.8 | 68.4 | 45 | 24.3 | 0.89 | 2550 nM |  |  |  |  |  | remaining activity at 16 µM (recombinant human TOP2B; 16 μM, independent replicates, read-out: Normalized % TOP2B activity, ATPase): 14.6%; remaining activity at 32 µM (recombinant human TOP2B; 32 μM, independent replicates, read-out: Normalized % TOP2B activity, ATPase): 13.2%; relative inhibition of TOP2A vs TOP2B (recombinant human TOP2B; ATPase): inhibits ATP hydrolysis for both isoforms with equal potency |
| CCCc1cc(=O)oc2c(C(=O)N3CCCc4ccccc43)c(OCCN3CCN(C)CC3)ccc12 [topobexin (9)] |  |  |  |  |  | 16.4 |  |  |  | 12 | 350 nM | > 100 |  |  |  |  | remaining activity at 0.0625 µM (recombinant human TOP2B; 0.0625 μM, independent replicates, normalized to 0 drug, read-out: Normalized % TOP2B activity): 96.9%; remaining activity at 0.125 µM (recombinant human TOP2B; 0.125 μM, independent replicates, normalized to 0 drug, read-out: Normalized % TOP2B activity): 95.3%; remaining activity at 0.25 µM (recombinant human TOP2B; 0.25 μM, independent replicates, normalized to 0 drug, read-out: Normalized % TOP2B activity): 95.6%; remaining activity at 0.5 µM (recombinant human TOP2B; 0.5 μM, independent replicates, normalized to 0 drug, read-out: Normalized % TOP2B activity): 87%; remaining activity at 1 µM (recombinant human TOP2B; 1 μM, independent replicates, normalized to 0 drug, read-out: Normalized % TOP2B activity): 74%; remaining activity at 2 µM (recombinant human TOP2B; 2 μM, independent replicates, normalized to 0 drug, read-out: Normalized % TOP2B activity): 48.9%; remaining activity at 4 µM (recombinant human TOP2B; 4 μM, independent replicates, normalized to 0 drug, read-out: Normalized % TOP2B activity): 23.7%; remaining activity at 8 µM (recombinant human TOP2B; 8 μM, independent replicates, normalized to 0 drug, read-out: Normalized % TOP2B activity): 9.64%; LDH release, mean ([1]; compound 100 µM alone): 16.49 % of total LDH; LDH release ([1]; compound 100 µM alone, independent replicates): 16.0714 % of total LDH and 14.563 % of total LDH and 13.722 % of total LDH and 21.6038 % of total LDH; LDH release (inherent toxicity), mean of independent replicates ([1]; compound alone 0.01 µM, Suppl.Fig.6c): 15.0001; LDH release (inherent toxicity), mean of independent replicates ([1]; compound alone 0.1 µM, Suppl.Fig.6c): 13.7512; LDH release (inherent toxicity), mean of independent replicates ([1]; compound alone 1 µM, Suppl.Fig.6c): 12.2924; LDH release (inherent toxicity), mean of independent replicates ([1]; compound alone 10 µM, Suppl.Fig.6c): 14.4604; LDH release (inherent toxicity), mean of independent replicates ([1]; compound alone 30 µM, Suppl.Fig.6c): 15.0547; LDH release (inherent toxicity), mean of independent replicates ([1]; compound alone 100 µM, Suppl.Fig.6c): 16.49 |
